Values quoted from earlier work in article PMC3762478 (Bioorganic & medicinal chemistry letters, 2013).
Read-outs that look alike come from different tables or passages of the source.

Tests used:
−1 receptor (sigma-1) [1] = settings: guinea-pig brain membranes
−1 receptor (sigma-1) [2] = settings: rat brain homogenates

| SMILES | selectivity over −2 receptor (−1 receptor (sigma-1) [1]) | Ki (−1 receptor (sigma-1) [1]; read-out: Ki for −1 receptor) | selectivity over −2 receptor (−1 receptor (sigma-1) [2]) | Ki (−1 receptor (sigma-1) [2]; read-out: Ki for −1 receptor) |
| --- | --- | --- | --- | --- |
| CCCc1ccc2c(c1)sc(=O)n2CCN1CCCCCC1 [Compound 1] | over 1000 fold | 0.56 nM |  |  |
| O=c1sc2cc(CCCF)ccc2n1CCN1CCCCCC1 [Compound 2] |  |  | > 100,000 fold | 0.0025 nM |
